Bounds are passed on as bounds.

The first data set concerns E. coli.
Assay: not given
As to conditions: Gram-negative; only when co-administered with Phe-Arg-β-naphthylamide dihydrochloride (PAβND), efflux pump inhibitor; cited from earlier work. Also on record: method as in PMID 17707686.
In the case of `CC12C[C@@]34C=CC(=O)[C@@](C)(CCC(=O)Nc5c(O)ccc(C(=O)O)c5O)C3[C@H](CC1C4)O2` (stereo partly drawn) [PL, platensimycin], the “Activity against E. coli” value was “active”.

Another data set deals with Bacillus subtilis.
Assay: not given
Conditions: Gram-positive; cited from earlier work.
For the compound `CC12C[C@@]34C=CC(=O)[C@@](C)(CCC(=O)Nc5c(O)ccc(C(=O)O)c5O)C3[C@H](CC1C4)O2` (stereo partly drawn) [PL, platensimycin], the “Activity against B. subtilis” value is recorded as “active”.

The data set is the same for the next values; noted with them: cultures of Bacillus subtilis; ref 22 (table title); cited from earlier work.
`CC12C[C@@]34C=CC(=O)[C@@](C)(CCC(=O)Nc5c(O)ccc(C(=O)O)c5O)C3[C@H](CC1C4)O2` (stereo partly drawn) [PL, platensimycin]: the “MIC for B. subtilis” value is reported as 2 µg/mL.

On to `CC1(C)C2CC=C(CNCCC(=O)Nc3c(O)ccc(C(=O)O)c3O)C1C2` (stereo not drawn) [QL-03], for which the “MIC for B. subtilis” value is on record as greater than 256 µg/mL.

As to `CCCCN(CCCC)CCC(=O)Nc1c(O)ccc(C(=O)O)c1O` [QD-06], the “MIC for B. subtilis” value is 128 µg/mL.

For the next data set, the system named is A98S MscS in the cytoplasmic membrane of E. coli. Put plainly: Patch-clamp of A98S MscS in excised spheroplast patches (activation midpoint shift). Conditions: x-intercept of midpoint shift (∆p0.5) vs. concentration, native E. coli membrane, cytoplasmic side. Here is the method:
A pB10b vector was used to house and express the mscS gene in the triple-knockout E. coli strain MJF465 (mscS^−, mscL^−, mscK^−). The A98S MscS mutant, generated and partially characterized previously, was chosen for its higher sensitivity to inner leaflet drug partitioning.
Spheroplasts were generated as described previously. The experimental bath solution contained 400 mM sucrose, 200 mM KCl, 50 mM MgCl2, 5 mM CaCl2, and 5 mM HEPES and was titrated to pH 7.4 with KOH. Membrane patches were obtained on borosilicate glass pipettes and recorded at 30 mV pipette voltage set by a microelectrode amplifier. The midpoint of activation for channels in each patch was determined at two-minute intervals for the duration of the experiment via a 1 s ramp of saturating pressure. Analogs of platensimycin were pre-diluted in either ethanol or bath solution and perfused into the bath to achieve the desired concentration; control injections of equivalent volumes of ethanol had no effect on the midpoint of activation. Negative pressure (suction) was applied with the HSPC-1 high speed pressure clamp apparatus from ALA Scientific. Programming of the pressure protocols and data analysis was performed with the PClamp10 suite (Axon Instr., Foster City, CA, USA). The principle of lateral pressure measurements using two experimental systems, lipid monolayers and patch-clamp, is illustrated in Figure 1.
Similarly, the bulk-membrane partitioning coefficient (Kmem) was estimated from the values of relative increase in MscS activation pressure midpoint (p0.5) measured in patch-clamp experiments at different concentrations of intercalating agents by linear fit of Δp0.5 as a function of log(Cd).
Background: The patch-clamp technique gives a direct electrical read-out from membranes.
In the case of `CC12C[C@@]34C=CC(=O)[C@@](C)(CCC(=O)Nc5c(O)ccc(C(=O)O)c5O)C3[C@H](CC1C4)O2` (stereo partly drawn) [PL, platensimycin], the “log Kmem (patch-clamp)” value came to 5.0.

Take `CC1(C)C2CC=C(CNCCC(=O)Nc3c(O)ccc(C(=O)O)c3O)C1C2` (stereo not drawn) [QL-03]: the “log Kmem (patch-clamp)” value worked out at 6.1.

For `CCCCN(CCCC)CCC(=O)Nc1c(O)ccc(C(=O)O)c1O` [QD-06], the “log Kmem (patch-clamp)” value was found to be 5.5.

Another data set concerns S. aureus, MRSA.
Assay: not given
Also on record: method as in PMID 17707686. Conditions: Gram-positive; cited from earlier work.
Turning to `CC12C[C@@]34C=CC(=O)[C@@](C)(CCC(=O)Nc5c(O)ccc(C(=O)O)c5O)C3[C@H](CC1C4)O2` (stereo partly drawn) [PL, platensimycin], the “Activity against S. aureus, MRSA” value is recorded as “active”.

System in a further data set: not listed separately
As to the kind of experiment: Tensiometry at the air-water interface (Wilhelmy method). Type of data set: physicochemical. As to conditions: air-water partitioning coefficient, tensiometry, buffer pH 7.4. Here is the method:
Surface tensions of subphase solutions with varying concentrations of platensimycin analogs were quantified using the Wilhelmy method with a piece of filter paper (Whatman, No. 1, 10.5 mm wide and 0.25 mm thick) used as a probe. The subphase buffer consisted of 200 mM KCl, 10 mM MgCl2, 5 mM CaCl2, 5 mM HEPES (Sigma-Aldrich, St. Louis, MO, USA) titrated to a pH of 7.4 with KOH. The pressure sensor (model 601, NIMA, Coventry, UK) was calibrated using a 100 mg weight. Water surface tension was measured to be […], after calibration. […] The surface activity and values for molecular area at the surface of the air-water interface (As), the partition coefficient at the air-water interface of the surface active molecule (KAW), and the membrane partitioning coefficient (Kmem), were determined as described previously.
The analysis of interfacial adsorption data was performed in the general framework of the Gibbs equation (1) dπ=∑Γidμi where dπ represents a small change in surface pressure, Γi is surface excess of component i and dμi is the small change of chemical potential of that component in the aqueous phase. For one adsorbing component, in an ideal case the Gibbs isotherm takes the form (2) dπ=RTΓd ln C where surface excess is defined as the surface density of molecules Γ = 1/(NAaS), NA is Avogadro’s number and aS is the area requirement for the molecule at the surface. The adsorbing substance gradually saturates the surface; the process that can be approximated by a Langmuir isotherm: (3) Γ=Γ∞lnKAW⋅C/1+KAW⋅C
Thus, beyond a certain bulk concentration, Γ approaches a constant value of Γ∞ and in that range of concentrations a linear relationship holds: (4) Γ∞=(1/RT)dπ/d ln C
To evaluate the partition coefficient for an air-water interface (KAW) and monolayers (Klip), the integral form of this equation attributed to Szyszkowski and previously applied to monolayers by Seelig and coworkers was used: (5) π=RTΓ∞ln(KAWC+1)
As was shown in Suomolainen 2004 [5], the x-intercept of the fitting line of experimental π-lnC curve would approximate the inverse partitioning coefficient 1/KAW, measured at the air-water interface.
On to `CC12C[C@@]34C=CC(=O)[C@@](C)(CCC(=O)Nc5c(O)ccc(C(=O)O)c5O)C3[C@H](CC1C4)O2` (stereo partly drawn) [PL, platensimycin], for which the “log KAW (tens.)” value is listed as 4.6.

For the compound `CC1(C)C2CC=C(CNCCC(=O)Nc3c(O)ccc(C(=O)O)c3O)C1C2` (stereo not drawn) [QL-03], the “log KAW (tens.)” value came out at 5.0.

With `CCCCN(CCCC)CCC(=O)Nc1c(O)ccc(C(=O)O)c1O` [QD-06], the “log KAW (tens.)” value was 4.1.

Staying with this data set, now noted: up to 30 µM.
On to `CC12C[C@@]34C=CC(=O)[C@@](C)(CCC(=O)Nc5c(O)ccc(C(=O)O)c5O)C3[C@H](CC1C4)O2` (stereo partly drawn) [PL, platensimycin], for which the “Effect on surface tension” value is on record as “no visible effect”.

For the next data set, the system named is E. faecium, VRE.
Assay: not given
Also on record: method as in PMID 17707686. Conditions: Gram-positive; cited from earlier work.
Consider `CC12C[C@@]34C=CC(=O)[C@@](C)(CCC(=O)Nc5c(O)ccc(C(=O)O)c5O)C3[C@H](CC1C4)O2` (stereo partly drawn) [PL, platensimycin], for which the “Activity against E. faecium, VRE” value is listed as “active”.

System in another data set: not listed separately
Put plainly: Langmuir monolayer pressure-area isotherms. The format is physicochemical, E. coli. Conditions: E. coli polar lipid monolayer, 20 mN/m, pH 7.4, ~20 °C. Here is the method: All Langmuir monolayer experiments were done with a two-barrier rectangular 22 cm × 6 cm trough (MicroTrough XS, Kibron Inc., Helsinki, Finland) placed in an Airclean hood. A Dyneprobe metal alloy needle was used as the Wilhelmy plate. Lipids used were E. coli total polar lipid extract from Avanti Polar Lipids (Alabaster, AL, USA) dissolved in chloroform or hexane to a final concentration of 0.2 mg/mL. Distribution of lipids onto the subphase was accomplished using a gastight 50 µL Hamilton® syringe (Hamilton, Reno, NV, USA). The subphase buffer was identical to the tensiometry buffer. Pressure—Area isotherms (monolayers) were performed at room temperature (~20 °C) from 114 to 18 cm^2 at a barrier rate of 20 mm/min. For each analog, isotherms were measured at least four times at every concentration.
In Langmuir experiments, the value of the bulk-monolayer (Klip) partitioning coefficient was determined in a similar way, using the deviations of surface pressure of monolayers measured at constant area. […] However, at this compression, strongly intercalating substances produced pressure shifts beyond the collapse pressure of 45–47 mN/m, which forced us to score Δπ from surface pressure of 20 mN/m achieved at ~80 Å^2/molecule. Klip1 obtained in this expanded state was than corrected for the lateral pressure increase from π1 = 20 to π2 = 35 mN/m, which has the same form as Equation (7) in [5]: (6) ln(Klip2)=ln(Klip1)−(π2−π1)adNA/RT
Here ad is the area taken by the drug in the plane of the monolayer.
To estimate ad we assumed equilibrium between the drug in the subphase and in the monolayer and equated its chemical potentials in the two phases: (7) μ0+RTln(χd)=μ0σ+RTln(χdσ)+π⋅adNA
The right part with indexes σ represents the surface parameters of standard chemical potential µ0σ and drug mole fraction χdσ , whereas the left part represents the bulk parameters. Defining lnKlip = µ0σ −µ0 one can rearrange this equation as (8) lnKlip−lnχdσ−lnχd=π⋅adNA/RT
Differentiating with respect to π gives (9) −RTd(lnχdσ)/NAdπ=ad
Thus the molecular area of the drug defines the slope of χdσ , with which the drug re-partitions back to the subphase as surface pressure π increases. We further assume that at a given surface pressure, insertion of nd drug molecules into the film comprised of nL lipid molecules with initial area A0, should dilate the film by ΔA. (10) nd/nL=ΔA/A0⋅aL/ad
The parameter aL, the area per lipid at that particular pressure, is taken from the control pressure-area isotherm with no drug. The mole fraction of the drug in the monolayer χdσ = nd/(nd + nL) is related to the extent of monolayer dilation ΔA (11) ΔA=ad⋅nd=adnL⋅χdσ/1−χdσ
On the assumption that χdσ is small, ΔA is proportional to the mole fraction of the drug. In Equation (4) we substitute and obtain (12) −kTd(lnΔA)/dπ=ad
Thus, the molecular area of the drug can be determined from the logarithmic slope of ΔA on surface pressure. Once we know ad, we can introduce a correction to Klip due to lateral pressure change ([…]). In addition, we can estimate the molar ratio of drug-to-lipid, the mole fraction χdσ and the partitioning constant. From the extent of monolayer dilation at a constant surface pressure (chosen to be 20 mN/m), the apparent bulk-monolayer partitioning coefficient Klip could be independently estimated as Klip=χdσ/χd , where […] = Cd/55 represents the drug mole fraction in the subphase.
Regarding `CC12C[C@@]34C=CC(=O)[C@@](C)(CCC(=O)Nc5c(O)ccc(C(=O)O)c5O)C3[C@H](CC1C4)O2` (stereo partly drawn) [PL, platensimycin], the “log Klip @ 20 mN/m, Measured” value is reported as 6.6.

On to `CC1(C)C2CC=C(CNCCC(=O)Nc3c(O)ccc(C(=O)O)c3O)C1C2` (stereo not drawn) [QL-03], for which the “log Klip @ 20 mN/m, Measured” value is reported as 5.6.

As for `CCCCN(CCCC)CCC(=O)Nc1c(O)ccc(C(=O)O)c1O` [QD-06], the “log Klip @ 20 mN/m, Measured” value was found to be 5.0.

Still in this data set, the particulars now being: area taken by the drug in the monolayer, from slopes of log(ΔArea) vs. surface pressure.
On to `CC12C[C@@]34C=CC(=O)[C@@](C)(CCC(=O)Nc5c(O)ccc(C(=O)O)c5O)C3[C@H](CC1C4)O2` (stereo partly drawn) [PL, platensimycin], for which the “Effective Molec. Area (ad)” value is 34 Å^2.

As for `CC1(C)C2CC=C(CNCCC(=O)Nc3c(O)ccc(C(=O)O)c3O)C1C2` (stereo not drawn) [QL-03], the “Effective Molec. Area (ad)” value came to 28 Å^2.

`CCCCN(CCCC)CCC(=O)Nc1c(O)ccc(C(=O)O)c1O` [QD-06]: the “Effective Molec. Area (ad)” value is 30 Å^2.

The data set is the same for the next values; noted with them: area taken by the drug in the monolayer, from slopes of log(ΔArea) vs. surface pressure; listed as platensimycin.
`CC12C[C@@]34C=CC(=O)[C@@](C)(CCC(=O)Nc5c(O)ccc(C(=O)O)c5O)C3[C@H](CC1C4)O2` (stereo partly drawn) [PL, platensimycin]: the “Effective Molec. Area (ad)” value was 31–34 Å^2.

Staying with this data set, now noted: corrected to the monolayer-bilayer equivalence pressure 35 mN/m (Equation 6).
On to `CC12C[C@@]34C=CC(=O)[C@@](C)(CCC(=O)Nc5c(O)ccc(C(=O)O)c5O)C3[C@H](CC1C4)O2` (stereo partly drawn) [PL, platensimycin], for which the “log Klip @ 35 mN/m, Corrected” value came to 6.1.

For `CC1(C)C2CC=C(CNCCC(=O)Nc3c(O)ccc(C(=O)O)c3O)C1C2` (stereo not drawn) [QL-03], the “log Klip @ 35 mN/m, Corrected” value was found to be 5.2.

Turning to `CCCCN(CCCC)CCC(=O)Nc1c(O)ccc(C(=O)O)c1O` [QD-06], the “log Klip @ 35 mN/m, Corrected” value is given as 4.5.

These data come from PMC4581228, “Membrane Affinity of Platensimycin and Its Dialkylamine Analogs” (International Journal of Molecular Sciences, 2015).
